Measured values as given in patent publication US20090062401A1, “DECALINE-DERIVED COMPOUNDS AS […] ACTIVE AGENTS” (UNIVERSITAT DORTMUND, priority 2004, published 2009).
Read-outs that look alike come from different tables or passages of the source.

How the values were obtained:
[1] = molecular target: MPTPA (Mycobacterium tuberculosis, UniProt P9WIA1); test: MtPTPA phosphatase inhibition, general phosphatase assay using para-nitrophenylphosphate; format: biochemical
Source text: (§1) Assays protocols for the other enzymes mentioned herein (MtPTPA, PP1, VHR, PTP1B) are disclosed in Schweizer R A S, Atanasov, G A, Frey B M, and Odermatt A, Mol. Cell. Endocrinol. 2003, 212, 41-49 and Barratte, B., Meijer L., Galaktionov K. & Beach D, Anticancer Res. 1992, 12, 873-880. For determination of the phosphatase activity, a general phosphatase assay using para-nitrophenylphosphate was applied.

[2] = molecular target: VHR (Homo sapiens, UniProt P51452); test: VHR phosphatase inhibition, general phosphatase assay using para-nitrophenylphosphate; format: biochemical; details: read-out: IC50 Target VHR
VHR, sequence (P51452 whole entry, species assumed): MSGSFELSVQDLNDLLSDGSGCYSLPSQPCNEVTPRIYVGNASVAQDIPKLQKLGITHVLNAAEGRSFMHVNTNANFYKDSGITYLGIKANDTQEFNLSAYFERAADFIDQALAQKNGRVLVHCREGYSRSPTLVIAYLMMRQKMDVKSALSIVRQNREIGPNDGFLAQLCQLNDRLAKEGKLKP
Source text: as §1

[3] = molecular target: T1, Cdc25A (Homo sapiens, UniProt P30304); test: Cdc25A phosphatase inhibition; format: biochemical; details: read-out: IC50 Target Cdc25A
T1 sequence (P30304 1-524): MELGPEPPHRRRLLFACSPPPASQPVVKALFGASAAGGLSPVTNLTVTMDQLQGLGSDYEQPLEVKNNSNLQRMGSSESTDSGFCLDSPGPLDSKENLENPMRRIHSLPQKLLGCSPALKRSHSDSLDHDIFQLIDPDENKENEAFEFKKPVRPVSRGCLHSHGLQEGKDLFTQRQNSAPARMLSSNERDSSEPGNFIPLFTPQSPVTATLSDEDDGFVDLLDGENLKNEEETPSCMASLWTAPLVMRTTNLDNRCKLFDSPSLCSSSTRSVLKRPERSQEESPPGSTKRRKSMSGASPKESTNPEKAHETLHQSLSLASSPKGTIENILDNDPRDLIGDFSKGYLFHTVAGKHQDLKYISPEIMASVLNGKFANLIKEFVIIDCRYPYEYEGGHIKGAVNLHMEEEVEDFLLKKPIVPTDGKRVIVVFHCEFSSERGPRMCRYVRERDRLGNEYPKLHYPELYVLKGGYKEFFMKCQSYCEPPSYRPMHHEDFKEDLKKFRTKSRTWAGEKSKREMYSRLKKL
Source text: (§2) Assay protocols for Cdc25A, 11βHSD1, 11βHSD2, and AChE are described in detain in the publication of Koch M A, Wittenberg L O, Basu S, Jeyaraj D A, Gourzoulidou E, Reinecke K, Odermatt A, Waldmann H (Proc. Natl. Acad. Sci. U.S.A. 2004 Nov. 30; 101(48):16721-6) and in Koch M A et al., Proc. Natl. Acad. Sci. U.S.A. 2005 Nov. 29; 102 (48):17272-7.

[4] = molecular target: T2, PTP1B (Homo sapiens, UniProt P18031); test: PTP1B phosphatase inhibition, general phosphatase assay using para-nitrophenylphosphate; format: biochemical; details: read-out: IC50 Target PTP1B
T2 sequence (P18031 1-435): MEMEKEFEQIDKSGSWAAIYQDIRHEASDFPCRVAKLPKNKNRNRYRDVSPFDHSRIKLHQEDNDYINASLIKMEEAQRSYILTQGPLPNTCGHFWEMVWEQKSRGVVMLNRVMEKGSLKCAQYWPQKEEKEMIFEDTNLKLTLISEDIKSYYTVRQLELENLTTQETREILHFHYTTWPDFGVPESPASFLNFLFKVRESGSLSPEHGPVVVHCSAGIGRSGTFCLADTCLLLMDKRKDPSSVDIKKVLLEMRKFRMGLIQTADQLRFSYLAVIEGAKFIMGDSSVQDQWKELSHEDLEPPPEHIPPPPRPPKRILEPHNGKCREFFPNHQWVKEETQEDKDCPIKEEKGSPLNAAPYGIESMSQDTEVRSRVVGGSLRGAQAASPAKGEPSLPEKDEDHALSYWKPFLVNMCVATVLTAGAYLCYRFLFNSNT
Source text: as §1

[5] = molecular target: PP1; test: PP1 phosphatase inhibition, general phosphatase assay using para-nitrophenylphosphate; format: biochemical; details: read-out: IC50 Target PP1
Source text: as §1

[6] = molecular target: 11beta-HSD1 (Homo sapiens, UniProt P28845); test: biochemical; details: read-out: IC50 Target 11beta-HSD1
11beta-HSD1, sequence (P28845 whole entry): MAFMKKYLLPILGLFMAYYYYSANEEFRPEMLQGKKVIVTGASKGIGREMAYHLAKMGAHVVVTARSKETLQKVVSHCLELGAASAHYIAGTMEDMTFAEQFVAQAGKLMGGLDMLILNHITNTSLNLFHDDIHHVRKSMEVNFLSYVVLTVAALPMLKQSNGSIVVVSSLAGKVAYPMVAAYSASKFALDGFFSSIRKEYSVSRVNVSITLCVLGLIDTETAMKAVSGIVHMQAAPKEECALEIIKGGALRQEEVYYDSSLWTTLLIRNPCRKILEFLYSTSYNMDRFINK
Source text: as §2

MPTPA, sequence (P9WIA1 whole entry): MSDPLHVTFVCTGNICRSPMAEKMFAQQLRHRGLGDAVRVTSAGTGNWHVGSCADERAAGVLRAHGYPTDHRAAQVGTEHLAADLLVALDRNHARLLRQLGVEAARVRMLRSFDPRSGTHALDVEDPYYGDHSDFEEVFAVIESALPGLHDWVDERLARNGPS

SMILES | IC50 ([1]; read-out: IC50 Target MPTPA) [µM] | IC50 [2] [µM] | IC50 [4] [µM] | also measured
CCCCCCCCCCCCCCC#Cc1ccc(/C=C2\C[C@@]3(Cc4ccccc4)C(=C(C)C2=O)CCC[C@@H]3O)cc1 [Compound 128, (3E,4aS,5S)-3-[4-(Hexadec-1-inyl)benzyliden]-4a-benzyl-4,4a,5,6,7,8-hexahydro-5-hydroxy-1-methylnaphthalen-2(3H)-one] | 10 to 50 | 10 to 50 |  | 
CC1=C2CCC[C@H](O)[C@@]2(C)C/C(=C\c2ccc(C#CCCO)cc2)C1=O [Compound 55, (3E,4aS,5S)-3-[4-(4-Hydroxybut-1-inyl)benzyliden]-4,4a,5,6,7,8-hexahydro-5-hydroxy-1,4a-dimethylnaphthalen-2(3H)-one] |  | 10 to 50 | 10 to 50 | IC50 [3]: < 10 µM; IC50 [1]: 10 to 50 µM
C/C=C1\CC[C@@]2(C)C(=C1C)CCC[C@@H]2O [Compound 411, (2E,4aS,5S)-6-Ethylidene-5,8a-dimethyl-1,2,3,4,6,7,8,8a-octahydro-naphthalen-1-ol] |  |  |  | IC50 [5]: 10 to 50 µM
CCC(c1ccc(I)cc1)C1C[C@@]2(C)C(=C(C)C1=O)CCC[C@@H]2O (stereo partly drawn) [Compound 412, (4aS,5S)-5-Hydroxy-3-[1-(4-iodo-phenyl)-propyl]-1,4a-dimethyl-4,4a,5,6,7,8-hexahydro-3H-naphthalen-2-one] | 10 to 50 | 10 to 50 | 10 to 50 | 
CCCCCCCCCC#Cc1ccc(/C=C2\C[C@@]3(C)C(CCC[C@@H]3O)C(C)C2=O)cc1 (stereo partly drawn) [Compound 131, (E,4aS,5S)-3-[4-(Undec-1-inyl)benzyliden]-octahydro-5-hydroxy-1,4a-dimethylnaphthalen-2(1H)-one] | 10 to 50 | 10 to 50 |  | 
CC1=C2CCC[C@H](O)[C@@]2(C)C/C(=C\c2ccc(C#Cc3cccc(F)c3)cc2)C1=O [Compound 49, (3E,4aS,5S)-3-{4-[2-(3-Fluorphenyl)ethinyl]benzyliden}-4,4a,5,6,7,8-hexahydro-5-hydroxy-1,4a-dimethylnaphthalen-2(3H)-one] |  | 10 to 50 |  | IC50 [3]: < 10 µM; IC50 [5]: < 10 µM
CCN(CC)C1CC[C@@]2(C)C(=C1C)CCC[C@@H]2O (stereo partly drawn) [Compound 388, (1S,8aS)-6-(Diethylamino)-1,2,3,4,6,7,8,8a-octahydro-5,8a-dimethylnaphthalen-1-ol] | 10 to 50 |  |  | 
COc1ccc(/C=C2\C[C@@]3(C)C(=C(C)C2=O)CCC[C@@H]3O)cc1 [Compound 24, (3E,4aS,5S)-3-(4-Methoxybenzyliden)-4,4a,5,6,7,8-hexahydro-5-hydroxy-1,4a-dimethylnaphthalen-2(3H)-on] |  | 10 to 50 | 10 to 50 | IC50 [3]: 10 to 50 µM; IC50 [1]: 10 to 50 µM; IC50 [6]: < 10 µM
CCCCCCCCCCCCC#Cc1ccc(/C=C2\C[C@@]3(C)C(CCC[C@@H]3O)C(C)C2=O)cc1 (stereo partly drawn) [Compound 133, (E,4aS,5S)-3-[4-(Tetradec-1-inyl)benzyliden]-octahydro-5-hydroxy-1,4a-dimethylnaphthalen-2(1H)-one] | 10 to 50 | 10 to 50 |  | 
CC1=C2CCC[C@H](O)[C@@]2(C)CCC1=O [Compound 413, (4aS,5S)-5-Hydroxy-1,4a-dimethyl-4,4a,5,6,7,8-hexahydro-3H-naphthalen-2-one] | 10 to 50 | 10 to 50 | 10 to 50 | 
CCCCCCCCCCCCCCC#Cc1ccc(/C=C2\C[C@@]3(C)C(CCC[C@@H]3O)C(C)C2=O)cc1 (stereo partly drawn) [Compound 127, (E,4aS,5S)-3-[4-(Hexadec-1-inyl)benzyliden]-octahydro-5-hydroxy-1,4a-dimethylnaphthalen-2(1H)-one] | 10 to 50 | 10 to 50 |  | 
CC1=C2CCC[C@H](O)[C@@]2(C)CC(=Cc2ccc(C#CCN(C)C)cc2)C1=O [Compound 396, (4aS,5S)-3-[4-(3-Dimethylamino-prop-1-ynyl)-benzylidene]-5-hydroxy-1,4a-dimethyl-4,4a,5,6,7,8-hexahydro-3H-naphthalen-2-one] |  | 10 to 50 | 10 to 50 | IC50 [1]: 10 to 50 µM
CCCCCCC#Cc1ccc(/C=C2\C[C@@]3(C)C(CCC[C@@H]3O)C(C)C2=O)cc1 (stereo partly drawn) [Compound 125, (E,4aS,5S)-3-[4-(Oct-1-inyl)-benzyliden]-octahydro-5-hydroxy-1,4a-dimethylnaphthalen-2(1H)-one] | 10 to 50 | 10 to 50 |  | 
C=C(C)C#Cc1ccc(/C=C2\C[C@@]3(C)C(=C(C)C2=O)CCC[C@@H]3O)cc1 [Compound 56, (3E,4aS,5S)-3-[4-(3-Methylbut-3-en-1-inyl)benzyliden]-4,4a,5,6,7,8-hexahydro-5-hydroxy-1,4a-dimethylnaphthalen-2(3H)-on] |  | 10 to 50 | 10 to 50 | IC50 [1]: 10 to 50 µM
CC1(Cc2cc(Br)cc(Br)c2)C(=O)/C(=C/c2ccc(I)cc2)CC2(C)C1CCCC21OCCO1 (centres unmarked) [Compound 416, (7′E)-5′-(3,5-Dibromobenzyl)-7′-(4-iodo-benzylidene)-5′,8a′-dimethylhexahydro-2′H-spiro[1,3-dioxolane-2,1′-naphthalen]-6′(5′H)-one] |  |  | 10 to 50 | IC50 [6]: < 10 µM
CC1(CCCc2ccccc2)C(=O)CC[C@@]2(C)C1CCC[C@@H]2O (stereo partly drawn) [Compound 397, (4aS,5S)-5-Hydroxy-1,4a-dimethyl-1-(3-phenyl-propyl)-octahydro-naphthalen-2-one] |  | 10 to 50 |  | IC50 [3]: 10 to 50 µM; IC50 [5]: 10 to 50 µM
CC1=C(/C=C2\C[C@@]3(C)C(CCC[C@@H]3O)C(C)C2=O)NCC1 (stereo partly drawn) [Compound 158, (3E,4aS,5S)-Octahydro-3-[(4,5-dihydro-3-methyl-1H-pyrrol-2-yl)methylen]-5-hydroxy-1,4a-dimethylnaphthalen-2(1H)-one] | 10 to 50 | 10 to 50 | 10 to 50 | 
CC1=C2CCC[C@H](O)[C@@]2(C)C/C(=C\c2ccc(F)c(F)c2)C1=O [Compound 1, (3E,4aS,5S)-3-(3,4-Difluorbenzyliden)-4,4a,5,6,7,8-hexahydro-5-hydroxy-1,4a-dimethyl-naphthalen-2(3H)-one] |  | 10 to 50 |  | IC50 [6]: < 10 µM
CCCCCCCCCCCCC#Cc1ccc(/C=C2\C[C@@]3(Cc4ccccc4)C(=C(C)C2=O)CCC[C@@H]3O)cc1 [Compound 134, (3E,4aS,5S)-3-[4-(Tetradec-1-inyl)benzyliden]-4a-benzyl-4,4a,5,6,7,8-hexahydro-5-hydroxy-1-methylnaphthalen-2(3H)-one] | 10 to 50 | 10 to 50 |  | 
CCCCCCCCCCC#Cc1ccc(/C=C2\C[C@@]3(C)C(=C(C)C2=O)CCC[C@@H]3O)cc1 [Compound 45, (3E,4aS,5S)-3-[4-(Dodec-1-inyl)benzyliden]-4,4a,5,6,7,8-hexahydro-5-hydroxy-1,4a-dimethyl-naphthalen-2(3H)-on] |  | 10 to 50 | 10 to 50 | IC50 [5]: < 10 µM
CC1=C2CCC[C@H](O)[C@@]2(C)C/C(=C\c2ccc([N+](=O)[O-])cc2)C1=O [Compound 17, (3E,4aS,5S)-3-(4-Nitrobenzyliden)-4,4a,5,6,7,8-hexahydro-5-hydroxy-1,4a-dimethylnaphthalen-2(3H)-one] |  |  | 10 to 50 | IC50 [5]: 10 to 50 µM
CCCC#Cc1ccc(/C=C2\C[C@@]3(Cc4ccccc4)C(=C(C)C2=O)CCC[C@@H]3O)cc1 [Compound 130, (3E,4aS,5S)-3-[4-(Pent-1-inyl)benzyliden]-4a-benzyl-4,4a,5,6,7,8-hexahydro-5-hydroxy-1-methylnaphthalen-2(3H)-one] | 10 to 50 | 10 to 50 |  | 
CC1=C2CCC[C@H](O)[C@@]2(C)C/C(=C\c2ccc(Br)cc2)C1=O [Compound 65, (3E,4aS,5S)-3-(4-Brombenzyliden)-4,4a,5,6,7,8-hexahydro-5-hydroxy-1,4a-dimethylnaphthalen-2(3H)-one] |  |  |  | IC50 [6]: 10 to 50 µM
